Experimental data taken from paper PMC12147355, “Targeted destruction of follicle stimulating hormone receptor-positive cancer cells in vitro and in vivo by a lytic peptide Phor21-FSHβ conjugate” (Molecular Medicine, 2025).
Where two headings read alike, the source gives them in different places. Ends that are not written are not given here.

Columns and labels:
HEK-293 xenografts = experiment: HEK-293 (FSHR-negative) cell xenografts in athymic nude male mice; format: in vivo; settings: 8 mg/kg/72 h, 21 days, n = 8–12
From the text: (§1) All the mouse experiments were approved by the local ethics committee of the Medical University of Bialystok, Poland. Athymic nude males (Crl: NU(NCr)-Foxn1^nu, 8–10 weeks old, 20–23 g) purchased from Charles River Laboratories International, Inc. (Sulzfeld, Germany; RRID: SCR_003792) were housed two or three per cage and provided with sterilized pellet chow and water. The animals were maintained in a pathogen-free mouse colony at the Center of Experimental Medicine Animal Facility (Bialystok, Poland).
(§2) HEK293-FSHR, HEK-293, and LNCaP cells were treated with trypsin when they were nearly confluent and were harvested. The cells were centrifuged at 1100 rpm for 5 min and resuspended in sterile non-supplemented culture medium mixed 1:1 with the Matrigel® matrix (Corning, Corning, USA). The cell suspension (1 × 10^6 cells/0.2 ml - HEK293-FSHR and HEK-293 cells; 5 × 10^6 cells/0.2 ml – LNCaP cells) was injected subcutaneously into the interscapulum area. When the xenograft volume reached 150–200 mm^3 (5–8 days after implantation), the xenograft-bearing mice were randomly divided into treatment groups, as described in Suppl Table 2.
(§3) Three independent xenograft experiments were conducted. In the first set, we tested whether the Phor21-FSHβ33–53 C/S conjugate selectively targeted and destroyed FSHR-expressing HEK293-FSHR cells, using a proof-of-concept experiment. […]

LNCaP xenografts = experiment: LNCaP cell xenografts in athymic nude male mice; format: in vivo; settings: Phor21 8 mg/kg/72 h, Phor21-FSHβ 2 or 8 mg, 21 days; for growth of LNCaP xenografts (total xenograft volume at necropsy): CTX 5 mg/kg/48h, n = 10–12
From the text: as §1, §2
Three independent xenograft experiments were conducted. In the first set, we tested whether the Phor21-FSHβ33–53 C/S conjugate selectively targeted and destroyed FSHR-expressing HEK293-FSHR cells, using a proof-of-concept experiment. CTX was used to inhibit FSH secretion, which competed with Phor21-FSHβ33–53 C/S for FSHR-binding sites (Suppl Table 2). In the second set of experiments, we tested the specificity of the Phor21-FSHβ33–53 C/S conjugate using FSHR-negative HEK293 cells xenografted into nude mice (Suppl Table 2). Finally, in the third set of in vivo experiments, we tested whether Phor21-FSHβ33–53 C/S conjugate treatment could inhibit the growth of human prostate cancer LNCaP cell xenografts (FSHR-negative cells) by destroying FSHR-positive endothelial cells in xenograft tissues, as reported previously (Radu et al. [2010]) (Suppl Table 2). Phor21-FSHβ33–53 C/S was later on addressed as Phor21-FSHβ. […]

[1] = mouse, in vivo
Procedure: (§6) In each experimental set, the mice were sacrificed 3 days after the last injection. Total blood was collected via heart puncture under isoflurane anesthesia. The animals were euthanized by cervical dislocation. Body weight, selected organs, xenograft weights/volumes, and sizes were recorded at the time of necropsy. The xenografts and testes were fixed in 10% neutral buffered formalin or snap-frozen in liquid nitrogen for further experiments.

[2] = Body and organ weights at necropsy; settings: nude males xenografted with HEK293-FSHR cells, Fig. S4
Procedure: as §6

HEK293-FSHR xenografts = experiment: HEK293-FSHR cell xenografts in athymic nude male mice; format: in vivo
From the text: as §1, §2, §3

FSH = experiment: Plasma FSH immunofluorometric assay in xenografted mice; format: in vivo; settings: CTX 5 mg/kg/48h
Procedure: The plasma levels of FSH were analyzed via an immunofluorometric assay using the Delfia Enhancer system (PerkinElmer, Turku, Finland) according to the protocol described by van Casteren et al. (Casteren et al. [2000]). The FSH assay sensitivity was 0.1 µg/L, with an intra-assay CV of 4.3% and an interassay CV of 9.8% at 4.8 µg/L. The rat FSH standard (a gift from Dr. Albert Parlow from the National Institute of Diabetes and Digestive and Kidney Diseases, Bethesda, Maryland, USA) was diluted in Diluent II buffer (DELFIA Diluent II, PerkinElmer) to concentrations ranging from 50 ng/ml to 0.02 ng/ml for rat FSH. Enhanced fluorescence signals (DELFIA Enhancement Solution; PerkinElmer) were measured using a Victor^2 fluorometer (PerkinElmer).

[3] = Serum biochemical assay (Fuji Dri-Chem NX500); format: in vivo; settings: HEK293-FSHR xenograft mice (n=8-9); Fig S7
Procedure: To quantify the serum levels of glucose, γ-glutamyltransferase (GGT), alanine aminotransferase (ALT) and aspartate aminotransferase (AST), biochemical assays were performed using Fuji Dri-Chem NX500 (Fujifilm Corporation®) according to the manufacturer’s instructions (Lei et al. [2021]).

HEK-293 cells [4] = experiment: CyQUANT cell proliferation assay, HEK-293 cells; format: cell-based, human; settings: CTX 1, 5, 10, or 20 µM, 48 h; three independent experiments (n = 8/experiment)
Procedure: (§4) Cell proliferation was determined using a CyQUANT Cell Proliferation Assay (C7026, Life Technologies, Thermo Fisher Scientific). Prior to the experiments, HEK-293, HEK293-FSHR, and LNCaP cells were seeded in 96-well plates (7000 cells/well). After overnight incubation in the culture medium, the cells were starved for 4 h in basal non-supplemented DMEM/F12. […] After incubation, the medium was removed, and the plates with cells were frozen at −80 °C overnight. After thawing at room temperature (RT), 200 µl of CyQUANT GR dye/cell lysis buffer was added to each well and incubated for 5 min at room temperature (RT) in the dark. The fluorescence was read using a WALLAC Victor 2 1420 spectrophotometer (Perkin Elmer, Waltham, Massachusetts, USA) with ~ 480 nm excitation and ~ 520 nm emission maxima. The results were subtracted from a standard curve made from bacteriophage λ DNA (ranging from 50 pg/ml to 1.0 µg/ml) in CyQUANT GR/cell lysis buffer and are presented as absolute values.

HEK293-FSHR cells [5] = experiment: CyQUANT cell proliferation assay, HEK293-FSHR cells; format: cell-based, human; settings: CTX 1, 5, 10, or 20 µM, 48 h; three independent experiments (n = 8/experiment)
Procedure: Cell proliferation was determined using a CyQUANT Cell Proliferation Assay (C7026, Life Technologies, Thermo Fisher Scientific). […] After overnight incubation in the culture medium, the cells were starved for 4 h in basal non-supplemented DMEM/F12. The cells were then treated for 48 h with rhFSH (10, 100, or 1000 IU/L) or cetrorelix (CTX) (1, 5, 10, or 20 µM; Sigma-Aldrich), and 2.5% FSC was used as a positive control. After incubation, the medium was removed, and the plates with cells were frozen at −80 °C overnight. After thawing at room temperature (RT), 200 µl of CyQUANT GR dye/cell lysis buffer was added to each well and incubated for 5 min at room temperature (RT) in the dark. The fluorescence was read using a WALLAC Victor 2 1420 spectrophotometer (Perkin Elmer, Waltham, Massachusetts, USA) with ~ 480 nm excitation and ~ 520 nm emission maxima.

LNCaP cells [6] = experiment: CyQUANT cell proliferation assay, LNCaP cells; format: cell-based, human; settings: CTX 1, 5, 10, or 20 µM, 48 h; three independent experiments (n = 8/experiment)
Procedure: as §4

HEK-293 cells [7] = experiment: Caspase Glo 3/7 apoptosis assay, HEK-293 cells; format: cell-based, human; settings: CTX 20 µM, 12 h
Procedure: (§5) Caspase 3/7 activity was assessed using a Caspase Glo 3/7 kit (Promega) according to the manufacturer’s protocol. In brief, cells were seeded at 10,000/well in a 96-well plate, attached overnight, and treated with vehicle (CTR) or CTX (20 µM) for 12 h. Staurosporin (STS, 0.5 µM) was used as a positive inducer of caspase3/7-mediated apoptosis. The absolute luminescence was normalized to the vehicle-treated control value.

HEK293-FSHR cells [8] = experiment: Caspase Glo 3/7 apoptosis assay, HEK293-FSHR cells; format: cell-based, human; settings: CTX 20 µM, 12 h
Procedure: as §5

LNCaP cells [9] = experiment: Caspase Glo 3/7 apoptosis assay, LNCaP cells; format: cell-based, human; settings: CTX 20 µM, 12 h
Procedure: as §5

| Substance | growth of HEK-293 xenografts (total xenograft volume at necropsy) (HEK-293 xenografts) | histology of LNCaP xenografts (LNCaP xenografts) | growth of LNCaP xenografts (total xenograft volume at necropsy) (LNCaP xenografts) | spleen weight / size [1] | body weight [2] | testis weight [2] | histopathological analysis of xenograft tissues (HEK293-FSHR xenografts; histology, PARP1 staining) | xenograft growth compared with the control group (total xenograft volume at necropsy) (HEK293-FSHR xenografts; nude male mice, Phor21 8 mg/kg/72 h, Phor21-FSHβ 2 or 8 mg/kg/72 h, CTX 5 mg/kg/48h, 21 days, n = 10–12) | FSH secretion (plasma FSH levels) (FSH; mice with HEK293-FSHR xenografts) | FSH secretion (plasma FSH levels) (FSH; mice with LNCaP xenografts) | serum ALT vs CTR group [3] | serum AST vs CTR group [3] | serum GGT vs CTR group [3] | proliferation of HEK-293 cells (HEK-293 cells [4]) | proliferation of HEK293-FSHR cells (HEK293-FSHR cells [5]) | proliferation of LNCaP cells (LNCaP cells [6]) | caspase 3/7 activity in HEK-293 cells (HEK-293 cells [7]) | caspase 3/7 activity in HEK293-FSHR cells (HEK293-FSHR cells [8]) | caspase 3/7 activity in LNCaP cells (LNCaP cells [9]) | spleen weight / size [2] |
| --- | --- | --- | --- | --- | --- | --- | --- | --- | --- | --- | --- | --- | --- | --- | --- | --- | --- | --- | --- | --- |
| KFAKFAKKFAKFAKKFAKFAK-NH2 [Phor21, lytic peptide Phor21 backbone, triple heptade KFAKFAK] | did not affect the growth | no changes | no changes | No significant differences | No significant differences | No significant differences |  |  |  |  |  |  |  |  |  |  |  |  |  |  |
| cetrorelix [CTX] |  |  | inhibited xenograft growth |  |  | significantly reduced | apoptosis | reduced xenograft growth | significantly decreased | inhibited FSH secretion | did not affect | did not affect | did not affect | dose-dependently decreased | dose-dependently decreased | dose-dependently decreased | activated | activated | activated | increased |
